# Test results: patent publication US9125930B2, “EGFR aptamer inhibitor for use in therapy and diagnosis” (CONSIGLIO NAZIONALE DELLE RICERCHE, priority 2010, dated 2015)
# Experiments:
# breast T47D = test: Binding on T47D cells; design: species or system human; details: no or very low expression of EGFR; 100 nM
# Description: (§1) Binding experiments were performed with 5′-[^32P]-labeled RNA. For labeling 2′-F-Py RNAs were 5′-end dephosphorylated using bacterial alcaline phosphatase (Invitrogen, Carlsbad, Calif.) before [^32P]-5′-end-labeled using T4 kinase (Invitrogen) and γ-[^32P]-ATP (6×10^3 Ci/mmol, GE Healthcare Bio-Sciences, Uppsala, Sweden) according to the supplier's instructions.
# (§2) For binding experiments on cells, 3.5×10^4 cells were plated in 24-well plates in triplicate and were incubated with CL4 42-81 aptamer the scrambled sequence used as a negative control at 100 nM concentration in 200 μl of DMEM serum free for 20 min at RT in the presence of 100 μg/ml polyinosine as a nonspecific competitor (Sigma, St. Louis, Mo.). After five washings with 500 μl DMEM, bound sequences were recovered in 300 μl of SDS 1%, and the amount of radioactivity recovered was counted.
# [1] = tested on: NIH3T3 cells stably transfected with human EGFR (NIH/EGFR); test: Binding on NIH/EGFR cells; design: species or system mouse; details: [32P]-labeled aptamer at 100 nM; relative to scrambled aptamer
# Description: Human NSCLC A549, epidermoid carcinoma A431, glioma U87MG and T98G, breast SKBr3, MCF7 and T47D and mouse fibroblast NIH3T3 (all from American Type Culture Collection, Manassas, Va.) cells were grown in Dulbecco's modified Eagle medium (DMEM) supplemented with 10% fetal bovine serum (FBS) and 2 mM L-glutamine (Invitrogen, Carlsbad, Calif.). NIH3T3 cells stably transfected with human EGFR (NIH/EGFR) were grown in DMEM with 10% FBS and 2 mM L-glutamine supplemented with 50 μg/ml Gentamycin.
# as §1, §2
# EGFR [2] = target: T1, EGFR (Homo sapiens, UniProt P00533); test: Immunoblot of EGF-dependent EGFR phosphorylation in A549 cells; type: cell-based; design: endogenous in cells; host or cells: A549; details: 200 nM aptamer, following 5 min of EGFR stimulation
# Description: […] The aptamers were subjected to a short denaturation-renaturation step (85° C. for 5 min, snap-cooled on ice for 2 min, and allowed to warm up to 37° C.) before each treatment. To prepare cell extracts, cells were washed twice in ice-cold PBS, and lysed in buffer A (50 mM Tris-HCl pH 8.0 buffer containing 150 mM NaCl, 1% Nonidet P-40, 2 mg/ml aprotinin, 1 mg/ml pepstatin, 2 mg/ml leupeptin, 1 mM Na3VO4). Protein concentration was determined by the Bradford assay using bovine serum albumin as the standard. The cell lysates were subjected to SDS-PAGE. Gels were electroblotted into polyvinylidene difluoride membranes (Millipore Co., Bedford, Mass.), and filters were probed with the indicated primary antibodies: anti-EGFR and anti-phospho-EGFR (Tyr1062), anti-phospho-44/42 MAP kinase (E10) (also indicated as p-Erk), anti-phospho-Akt, anti-Akt and anti-phospho-STAT3 (Tyr705), anti-ErbB2 (all from Cell Signaling, Beverly, Mass., United States); anti-Erk1, anti-EGFR, anti-ErbB3, anti-ErbB4 (C-16) (Santa Cruz Biotechnology, California, United States); anti-α-αtubulin (DM 1A) (Sigma, St. Louis, Mo.).
# Proteins were visualized with peroxidase-conjugated secondary antibodies using the enhanced chemiluminescence system (GE Healthcare Bio-Sciences, Uppsala, Sweden). […]
# A549 cells [3] = test: Cell viability assay, A549 cells; type: cell-based, human
# Description: Cell viability was assessed with CellTiter 96® AQueous One Solution Cell Proliferation Assay (Promega, Madison, Wis.) according to according to the supplier's instructions. […] The optical density (OD) was measured using a Multilabel Counter (Bio-Rad) at a wavelength of 490 nm and cell viability was calculated by the following formula: Cell viability (%)=(OD treated cells/OD control cells)×100%. FACS Analysis
# glioma T98G = test: Binding on T98G cells; design: species or system human; details: high level of EGFR; 100 nM
# Description: as §1, §2
# EGFR [4] = target: T1, EGFR; test: Immunoblot of pEGFR in A549 xenograft tumor lysates; type: in vivo, mouse; design: from tissue; host or cells: A549 xenograft tumours excised from athymic CD-1 nude mice; details: pooled tumor lysates
# Description: FIG. 8. (A) A549 cells (2,000 cells/well in 24-well plates) were treated for 24 h or 48 h with CL4 42-81 or CL4 scrambled (200 nM-final concentration) and proliferation was determined by [^3H]-thymidine incorporation. Vertical bars indicate the standard deviation values. […] Day 0 marks the first day of injection. Data are shown as means±s.e.m. (n=8 tumors). (C) Three tumors per group selected randomly were excised, lysed, and the pooled lysates were immunoblotted with anti-pEGFR, anti-EGFR, anti-caspase-3, anti-cleaved caspase-8 and anti-αtubulin antibodies, as indicated. Molecular weights of indicated proteins are reported. (D) Cell lysates as in (C) were analyzed by caspase-3 fluorimetric assays.
# Athymic CD-1 nude mice (nu/nu) were housed in a highly controlled microbiological environment, thus to guarantee specific pathogen free conditions. Mice were injected subcutaneously with 3×10^6 (in 100 μl) in vitro propagated A549. Sixteen non-necrotic tumors of about 0.5 cm in diameter were randomly divided into two groups of eight mice as follows: group 1, CL4 scrambled-treated; group 2, CL4 42-81-treated. Aptamers (200 pmols/injection) were injected intra-tumorally in 100-1 μl volumes three times a week for 16 days. Tumors were measured every 2 days.
# Calu1 = test: Cell viability assay, Calu1 cells; type: cell-based, human; details: 200 nM-final concentration; not shown
# Description: Cell viability was assessed with CellTiter 96® AQueous One Solution Cell Proliferation Assay (Promega, Madison, Wis.) according to according to the supplier's instructions. Cells (4×10^3 cells/well) were plated in 96-well plates in triplicate. and were treated for 24 hs with heat denatured CL4 42-81 or the scrambled aptamer at 3 μM concentration. RNA concentrations were determined to ensure the continuous presence of a concentration of at least 200 nM, which takes into account the 6 hs-half life of the aptamer in 10% serum. The optical density (OD) was measured using a Multilabel Counter (Bio-Rad) at a wavelength of 490 nm and cell viability was calculated by the following formula: Cell viability (%)=(OD treated cells/OD control cells)×100%. FACS Analysis
# A549 cells [5] = test: Binding of [32P]-labeled aptamer on A549 cells; design: species or system human
# Description: as §1, §2
substance,measurement,setting,value
"CL4 42-81: 2′-fluoropyrimidine nuclease-resistant RNA aptamer of 39 nt: 5′ GCCUUAGUAACGUGCUUUGAUGUCGAUUCGACAGGAGGC 3′ (SEQ ID No. 1) (2'-fluoro at CU, RNA at AG, backbone not given here)",binding on T47D cells,breast T47D,does not bind
same,binding on NIH/EGFR cells,[1],binds
same,inhibition of EGF-dependent phosphorylation of EGFR,EGFR [2],60%
same,sensitivity of A549 cell viability,"A549 cells [3]; 200 nM-final concentration, 24 h",highly sensitive
same,cell viability,"A549 cells [3]; A549, 24 hs, 200 nM final concentration, relative to untreated cells set to 100%",about 60%
same,effectiveness on A549 cell viability in combination with gefitinib,"A549 cells [3]; CL4 42-81 100 and 200 nM with 1 μM gefitinib, 24 h",not improved
same,binding on T98G cells,glioma T98G,binds
same,extent of EGFR tyrosine phosphorylation in xenograft tumors,EGFR [4],decreases
same,sensitivity of Calu1 cell viability,Calu1,same effect
same,binding on A549 cells,"A549 cells [5]; EGFR-positive, 100 nM",binds
same,Kd,A549 cells [5]; binding to A549 target cells,38 nM
